The results in this text go back to patent US20040048834A1, “Antitumoral compounds” (priority 2000, published 2004).

What all share (assay type): cell-based
One data set deals with A549. The experiment in a line: Cytotoxicity of spisulosine analogs, A549 (after Berjeron et al). Particulars: methodology after Berjeron et al, NA=not active, read-out: Cytotoxicity IC50 A549.
The subject of a further data set is HT29. The experiment in a line: Cytotoxicity of spisulosine analogs, HT29 (after Berjeron et al). Particulars: methodology after Berjeron et al, NA=not active, read-out: Cytotoxicity IC50 HT29.
A further data set relates to DU145. The experiment in a line: Cytotoxicity of spisulosine analogs, DU145 (after Berjeron et al). Particulars: Homo sapiens, DU-145, DU145; methodology after Berjeron et al; NA=not active; read-out: Cytotoxicity IC50 DU145.
The subject of the next data set is P388. The experiment in a line: Cytotoxicity of spisulosine analogs, P388 (after Berjeron et al). Particulars: Mus musculus, P388, P388; methodology after Berjeron et al; NA=not active; read-out: Cytotoxicity IC50 P388.

Where a name gives a salt, the structure may show the parent alone. Read-outs that look alike come from different tables or passages of the source.

`CCCCCCCCCCCCCCC[C@@H](O)[C@@H](N)CCCN` [drawing 72, (4S,5R)-1,4-Diamino-5-eicosanol dihydrochloride]: the IC50 in the data set with A549 (A549, dihydrochloride) turned out to be 1240 nM; in the data set with HT29 (HT29, dihydrochloride), 1240 nM.
In the case of `CCCCCCCCCCCCCCCCC[C@@H](O)[C@@H](N)CC` [drawing 62, (3S,4R)-3-Amino-4-heneicosanol], the IC50 with A549 (Homo sapiens, A549, A549) was 30.5 nM; with HT29 (Homo sapiens, HT-29, HT29) it was 30.5 nM.
`CCCCCCCCCCCCCC[C@@H](O)[C@H](C)N` [drawing 45, (2S,3R)-2-Amino-3-heptadecanol hydrochloride]: the 50% inhibitory concentration (IC50) in the data set on A549 (A549, hydrochloride) was found to be 32.5 nM; with HT29 (HT29, hydrochloride), 32.5 nM.
With `CCCCCCCCCCCCCCC[C@@H](O)[C@H](C)NS(C)(=O)=O`, the IC50 in the data set on A549 (A549) and with HT29 (HT29) was 27.5 nM each time.
Regarding `CCCCCCCCCCCCCCC[C@@H](O)[C@@H](N)Cc1ccc(O)cc1` [drawing 70, (2S,3R)-2-Amino-1-(4′-hydroxyphenyl)-3-octadecanol hydrochloride], the half-maximal inhibitory concentration (IC50) with A549 (A549, hydrochloride) turned out to be 242 nM; in the data set with HT29 (HT29, hydrochloride) it was 242 nM.
For the compound `CCCCCCCCCCCCCCCCCC[C@@H](O)[C@H](C)N` [drawing 53, (2S,3R)-2-Amino-3-heneicosanol hydrochloride], the IC50 stood at 27.5 nM with A549 (A549, hydrochloride) and 27.5 nM with HT29 (HT29, hydrochloride).
Take `CCCCCCCCCCCCCCCCCCC[C@@H](O)[C@H](C)N` [(2S,3R)-2-Amino-3-docosanol]: the IC50 with DU145 was 1460 nM; in the data set on HT29 (Homo sapiens, HT-29, HT29), 1460 nM; in the data set on P388, 293 nM.
As for `CCCCCCCCCCCCCCC[C@@H](N)[C@H](C)N`, the IC50 in the data set on A549 (A549) and in the data set on HT29 (HT29) was 1400 nM in each case.
Consider `CCCCCCCCCCCCC/C=C/[C@@H](O)[C@@H](N)CF`, for which the half-maximal inhibitory concentration (IC50) in the data set with A549 (Homo sapiens, A549, A549) came out at 33.2 nM; in the data set on HT29 (Homo sapiens, HT-29, HT29), 33.2 nM.
On to `CCCCCCCCCCCCCCC[C@@H](O)[C@@H](N)CCCN` [drawing 71, (4S,5R)-1,4-Diamino-5-eicosanol], for which the IC50 in the data set on A549 (Homo sapiens, A549, A549) worked out at 1520 nM; in the data set with HT29 (Homo sapiens, HT-29, HT29), 1520 nM.
For `CCCCCCCCCCCCCCCCC[C@@H](O)[C@H](C)N` [drawing 51, (2S,3R)-2-Amino-3-eicosanol hydrochloride], the concentration for half-maximal inhibition (IC50) with A549 (A549, hydrochloride) was 14.3 nM; in the data set with HT29 (HT29, hydrochloride), 14.3 nM.
`CCCCCCCCCCCCCC[C@@H](O)[C@@H](N)CC` [drawing 57, (3s,4R)-3-Amino-4-octadecanol hydrocloride]: the half-maximal inhibitory concentration (IC50) in the data set on A549 (A549) and in the data set on HT29 (HT29) was 15.5 nM throughout.
Consider `CCCCCCCCCCCCCCCC[C@@H](O)[C@@H](N)CC` [drawing 60, (3S,4R)-3-Amino-4-eicosanol], for which the 50% inhibitory concentration (IC50) in the data set on A549 (A549) and in the data set with HT29 (HT29) was 319 nM in each case.
For `CCCCCCCCCCCCCCCC[C@@H](O)[C@H](C)N` [drawing 49, (2S,3R)-2-Amino-3-nonadecanol hydrochloride], the 50% inhibitory concentration (IC50) was determined as 29.8 nM in the data set with A549 (Homo sapiens, A549, A549) and 29.8 nM in the data set on HT29 (Homo sapiens, HT-29, HT29).
Turning to `CCCCCCCCCCCCCCC[C@@H](O)[C@@H](N)CCC` [drawing 64, (4S,5R)-4-Amino-5-eicosanol], the IC50 with A549 (A549) and in the data set with HT29 (HT29) was 159 nM each time.
Turning to `CCCCCCCCCCCCCCCCCCCC[C@@H](O)[C@H](C)N` [(2S,3R)-2-Amino-3-tricosanol], the half-inhibitory concentration (IC50) came to 2810 nM with DU145; 2810 nM with HT29 (Homo sapiens, HT-29, HT29); 1410 nM with P388.
On to `CCCCCCCCCCCCCCC[C@@H](OC)[C@H](C)N` [(2S,3R)-2-Amino-3-(methoxy)-octadecane], for which the IC50 was 1670 nM in the data set on A549 (Homo sapiens, A549, A549) and 1670 nM in the data set on HT29 (Homo sapiens, HT-29, HT29).
Take `CCCCCCCCCCCCCCC[C@H](N)[C@H](C)N`: the IC50 in the data set on A549 (A549) and in the data set with HT29 (HT29) was 280 nM each time.
As for `CCCCCCCCCCCCCCCC[C@@H](O)[C@@H](N)CC` [drawing 61, (3S,4R)-3-Amino-4-eicosanol hydrochloride], the IC50 in the data set on A549 (A549, hydrochloride) was 28.6 nM; in the data set on HT29 (HT29, hydrochloride), 28.6 nM.
With `CCCCCCCCCCCCCCCCC[C@@H](O)[C@@H](N)CC` [drawing 63, (3S,4R)-3-Amino-4-heneicosanol hydrochloride], the concentration for half-maximal inhibition (IC50) in the data set with A549 (A549, hydrochloride) came to 27.5 nM; in the data set on HT29 (HT29, hydrochloride), 27.5 nM.
